system: Ba/F3 cells expressing EGFR Del19/C797S (EGFR DC); experiment: Proliferation inhibitory activity, Ba/F3 cells expressing EGFR Del19/C797S (CellTiter-Glo); assay type: cell-based; conditions: Mus musculus, BaF3, 72 hours of compound treatment
Outline: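 Viability after 72 h of compound exposure was measured by luminescence (CellTiter-Glo) in Ba/F3 lines transduced with mutant EGFR. Final concentrations spanned 0.2 nM–5 μM over 12 threefold steps. Growth relative to untreated control gave GI50 values; each test was run three times.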

GI50 [nM] | Compound
< 50 | COc1cc(N2CCC(N3CCN(C)CC3)CC2)ccc1Nc1cc(N2OCC[C@@H]2c2ccc(F)c(F)c2)ncn1 [Example 90, (R)-6-(3-(3,4-difluorophenyl)isoxazolidin-2-yl)-N-(2-methoxy-4-(4-(4-methylpiperazin-1-yl)piperidin-1-yl)phenyl)pyrimidin-4-amine]
< 50 | COc1cc(N2CCC(N3CCN(C)[C@H](C)C3)CC2)ccc1Nc1cc(N2OCC[C@@H]2c2cccc(F)c2F)ncn1 [Example 213, 6-((R)-3-(2,3-difluorophenyl)isoxazolidin-2-yl)-N-(4-(4-((R)-3,4-dimethylpiperazin-1-yl)piperidin-1-yl)-2-methoxyphenyl)pyrimidin-4-amine]
< 50 | COc1cc(N2CCC(N3CCN(C)CC3)C(F)C2)ccc1Nc1cc(N2OCC[C@@H]2c2cccc(F)c2F)ncn1 (stereo partly drawn) [Example 140, 6-((R)-3-(2,3-difluorophenyl)isoxazolidin-2-yl)-N-(4-(3-fluoro-4-(4-methylpiperazin-1-yl)piperidin-1-yl)-2-methoxyphenyl)pyrimidin-4-amine]
< 50 | CN1CCC(N2CCN3c4ccc(Nc5cc(N6OCC[C@@H]6c6ccccc6)ncn5)cc4OC[C@H]3C2)CC1 [Example 48, (R)-3-(1-methylpiperidin-4-yl)-N-(6-((R)-3-phenylisoxazolidin-2-yl)pyrimidin-4-yl)-1,2,3,4,4a,5-hexahydrobenzo[b]pyrazino[1,2-d][1,4]oxazin-8-amine]
50 to 500 | Fc1cccc([C@H]2CCON2c2cc(Nc3ccc([C@@H]4CCON4)cc3)ncn2)c1F [Example 177, 6-((R)-3-(2,3-difluorophenyl)isoxazolidin-2-yl)-N-(4-((S)-isoxazolidin-3-yl)phenyl)pyrimidin-4-amine]
< 50 | CN1CCC2(CC1)CCN(c1ccc(Nc3cc(N4OCC[C@@H]4c4ccccc4)ncn3)cc1)CC2 [Example 135, (R)—N-(4-(9-methyl-3,9-diazaspiro[5.5]undecan-3-yl)phenyl)-6-(3-phenylisoxazolidin-2-yl)pyrimidin-4-amine]
< 50 | COc1cc(N2CCN(C3CCN(C)CC3)CC2)ccc1Nc1cc(N2OCC[C@@H]2c2ccccc2)ncn1 [Example 101, (R)—N-(2-methoxy-4-(4-(1-methylpiperidin-4-yl)piperazin-1-yl)phenyl)-6-(3-phenylisoxazolidin-2-yl)pyrimidin-4-amine]
< 50 | COc1cc(N2CCC(N3CCN(C)CC3)CC2)c(C(C)=O)cc1Nc1cc(N2OCC[C@@H]2c2cccc(F)c2F)ncn1 [Example 145, (R)-1-(5-((6-(3-(2,3-difluorophenyl)isoxazolidin-2-yl)pyrimidin-4-yl)amino)-4-methoxy-2-(4-(4-methylpiperazin-1-yl)piperidin-1-yl)phenyl)ethan-1-one]
< 50 | Cc1cc(N2CCOCC2)ccc1Nc1cc(N2OCC[C@@H]2c2ccccc2)ncn1 [Example 108, (R)—N-(2-methyl-4-morpholinophenyl)-6-(3-phenylisoxazolidin-2-yl)pyrimidin-4-amine]
< 50 | CCc1cc(Nc2cc(N3OCC[C@@H]3c3cc(F)ccc3F)ncn2)c(OC)cc1N1CCC(N2CCN(C)CC2)CC1 [Example 94, (R)-6-(3-(2,5-difluorophenyl)isoxazolidin-2-yl)-N-(5-ethyl-2-methoxy-4-(4-(4-methylpiperazin-1-yl)piperidin-1-yl)phenyl)pyrimidin-4-amine]
< 50 | COc1cc(N2CCN(C3CCN(C)CC3)C[C@H]2C)ccc1Nc1cc(N2OCC[C@@H]2c2ccccc2)ncn1 [Example 99, N-(2-methoxy-4-((R)-2-methyl-4-(1-methylpiperidin-4-yl)piperazin-1-yl)phenyl)-6-((R)-3-phenylisoxazolidin-2-yl)pyrimidin-4-amine]
< 50 | CN1CCN(C2CCN(c3c(F)cc(Nc4cc(N5OCC[C@@H]5c5ccccc5)ncn4)cc3F)CC2)CC1 [Example 123, (R)—N-(3,5-difluoro-4-(4-(4-methylpiperazin-1-yl)piperidin-1-yl)phenyl)-6-(3-phenylisoxazolidin-2-yl)pyrimidin-4-amine]
50 to 500 | COc1cc(N2CCC(N3CCN(C)CC3)CC2)ccc1Nc1ncnc(N2OCC[C@@H]2c2ccccc2)n1 [Example 112, (R)—N-(2-methoxy-4-(4-(4-methylpiperazin-1-yl)piperidin-1-yl)phenyl)-4-(3-phenylisoxazolidin-2-yl)-1,3,5-triazin-2-amine]
< 50 | COc1cc(N2CCC(N3CCN(C)CC3)CC2)c(C2CC2)cc1Nc1cc(N2OCC[C@@H]2c2ccccc2)ncn1 [Example 143, (R)—N-(5-cyclopropyl-2-methoxy-4-(4-(4-methylpiperazin-1-yl)piperidin-1-yl)phenyl)-6-(3-phenylisoxazolidin-2-yl)pyrimidin-4-amine]
< 50 | c1ccc([C@H]2CCON2c2cc(Nc3ccc(N4CCN(C5COC5)CC4)cc3)ncn2)cc1 [Example 124, (R)—N-(4-(4-(oxetan-3-yl)piperazin-1-yl)phenyl)-6-(3-phenylisoxazolidin-2-yl)pyrimidin-4-amine]
50 to 500 | Fc1cc(F)cc([C@H]2CCON2c2cc(Nc3cccc4c3OCC4)ncn2)c1 [Example 159, (R)-6-(3-(3,5-difluorophenyl)isoxazolidin-2-yl)-N-(2,3-dihydrobenzofuran-7-yl)pyrimidin-4-amine]
50 to 500 | COc1cc2c(cc1Nc1cc(N3OCC[C@@H]3c3cccc(F)c3F)ncn1)C(=O)N(C)C2 [Example 193, (R)-6-((6-(3-(2,3-difluorophenyl)isoxazolidin-2-yl)pyrimidin-4-yl)amino)-5-methoxy-2-methylisoindolin-1-one]
< 50 | COc1cc(NC2CCN(C)CC2)ccc1Nc1cc(N2OCC[C@@H]2c2ccccc2)ncn1 [Example 113, (R)-2-methoxy-N4-(1-methylpiperidin-4-yl)-N1-(6-(3-phenylisoxazolidin-2-yl)pyrimidin-4-yl)benzene-1,4-diamine]
< 50 | COc1cc(N2CCC(N3CCN(C4COC4)CC3)CC2)ccc1Nc1cc(N2OCC[C@@H]2c2cccc(F)c2F)ncn1 [Example 209, (R)-6-(3-(2,3-difluorophenyl)isoxazolidin-2-yl)-N-(2-methoxy-4-(4-(4-(oxetan-3-yl)piperazin-1-yl)piperidin-1-yl)phenyl)pyrimidin-4-amine]
< 50 | COc1cc(N2C[C@H]3C[C@@H]2CO3)ccc1Nc1cc(N2OCC[C@@H]2c2ccccc2)ncn1 [Example 59, N-(4-((1R,4R)-2-oxa-5-azabicyclo[2.2.1]heptan-5-yl)-2-methoxyphenyl)-6-((R)-3-phenylisoxazolidin-2-yl)pyrimidin-4-amine]
< 50 | CCC(=O)Nc1cc(Nc2cc(N3OCC[C@@H]3c3cc(F)cc(F)c3)ncn2)c(OC)cc1N1CCC(N2CCC(N(C)C)CC2)CC1 [Example 85, (R)—N-(5-((6-(3-(3,5-difluorophenyl)isoxazolidin-2-yl)pyrimidin-4-yl)amino)-2-(4-(dimethylamino)-[1,4′-bipiperidin]-1′-yl)-4-methoxyphenyl)propionamide]
< 50 | COc1cc(SCCN(C)C)ccc1Nc1cc(N2OCC[C@@H]2c2ccccc2)ncn1 [Example 65, (R)—N-(4-((2-(dimethylamino)ethyl)thio)-2-methoxyphenyl)-6-(3-phenylisoxazolidin-2-yl)pyrimidin-4-amine]
50 to 500 | COc1cc(N2CCC(N3CCN(C)CC3)CC2)ccc1Nc1cc(N2OCC[C@@H]2c2ccc3ccccc3c2)ncn1 [Example 89, (R)—N-(2-methoxy-4-(4-(4-methylpiperazin-1-yl)piperidin-1-yl)phenyl)-6-(3-(naphthalen-2-yl)isoxazolidin-2-yl)pyrimidin-4-amine]
50 to 500 | Cn1nccc1-c1ccc(Nc2cc(N3OCC[C@@H]3c3ccccc3)ncn2)c2c1OCCO2 [Example 80, (R)—N-(8-(1-methyl-1H-pyrazol-5-yl)-2,3-dihydrobenzo[b][1,4]dioxin-5-yl)-6-(3-phenylisoxazolidin-2-yl)pyrimidin-4-amine]
< 50 | COc1cc(N2CCC(N3CCC(N4CCN(C5CC5)CC4)CC3)CC2)ccc1Nc1cc(N2OCC[C@@H]2c2ccccc2)ncn1 [Example 63, (R)—N-(4-(4-(4-cyclopropylpiperazin-1-yl)-[1,4′-bipiperidin]-1′-yl)-2-methoxyphenyl)-6-(3-phenylisoxazolidin-2-yl)pyrimidin-4-amine]
50 to 500 | CN1OCC[C@H]1c1ccc(Nc2cc(N3OCC[C@@H]3c3cccc(F)c3F)ncn2)cc1 [Example 176, 6-((R)-3-(2,3-difluorophenyl)isoxazolidin-2-yl)-N-(4-((S)-2-methylisoxazolidin-3-yl)phenyl)pyrimidin-4-amine]
50 to 500 | CN1CCN(C2CCN(c3ccc(Nc4cc(N5OCC[C@@H]5c5cc(F)cc(F)c5)ncn4)cc3)CC2)CC1 [Example 17, (R)-6-(3-(3,5-difluorophenyl)isoxazolidin-2-yl)-N-(4-(4-(4-methylpiperazin-1-yl)piperidin-1-yl)phenyl)pyrimidin-4-amine]
< 50 | CC(=O)N1CCN(c2ccc(Nc3cc(N4OCC[C@@H]4c4ccccc4)ncn3)cc2)CC1 [Example 122, (R)-1-(4-(4-((6-(3-phenylisoxazolidin-2-yl)pyrimidin-4-yl)amino)phenyl)piperazin-1-yl)ethan-1-one]
< 50 | COc1cc(N2CCC(N3CCN(C)CC3)CC2)ccc1Nc1cc(N2OCC[C@@H]2c2cncc(Cl)c2)ncn1 [Example 182, (R)-6-(3-(5-chloropyridin-3-yl)isoxazolidin-2-yl)-N-(2-methoxy-4-(4-(4-methylpiperazin-1-yl)piperidin-1-yl)phenyl)pyrimidin-4-amine]
< 50 | COc1cc(N2CCC(N3CCN(C)CC3)CC2)ccc1Nc1cc(N2OCC[C@@H]2c2cc(F)ccc2F)ncn1 [Example 30, (R)-6-(3-(2,5-difluorophenyl)isoxazolidin-2-yl)-N-(2-methoxy-4-(4-(4-methylpiperazin-1-yl)piperidin-1-yl)phenyl)pyrimidin-4-amine]
